Measured values reported in patent US10124004B2, “Pyrido[3,4-d]pyrimidine derivative and pharmaceutically acceptable salt thereof” (Teijin Pharma Limited, priority 2015, dated 2018).

Target: T1, CDK4/cyclin D3 (Homo sapiens, UniProt P11802)
T1 construct: purchased Carna Biosciences, Inc. QS S Assist CDK4/Cyclin D3_FP Kit
Test: Human CDK4/cyclin D3 inhibitory activity (QS S Assist CDK4/Cyclin D3_FP Kit, IMAP fluorescence polarization)
Format: biochemical
Conditions: 50% inhibitory concentration against CDK4/cyclin D3, given as class symbol
Protocol: Human CDK4/Cyclin D3 Inhibitory Activity
Each compound was analyzed for CDK4/cyclin D3 inhibitory activity with an assay kit (QS S Assist CDK4/Cyclin D3_FP Kit, available from Carna Biosciences, Inc.). This assay kit determines kinase activity on the basis of the IMAP technology by Molecular Devices. Specifically, the kinase activity is determined through quantification of a variation in fluorescent polarization caused by binding of a kinase-phosphorylated fluorescent substance to an IMAP-binding reagent.
Each solution was prepared with the 10× assay buffer attached to the kit or a separately prepared assay buffer having the same composition as the assay buffer attached to the kit. An assay buffer was prepared by 10-fold dilution of the 10× assay buffer with distilled water. The assay buffer contains 20 mM HEPES (pH 7.4), 0.01% Tween20, and 2 mM dithiothreitol. A test compound solution was prepared by dilution of the test compound with dimethyl sulfoxide (DMSO) to a concentration 100 times higher than the final concentration and then 25-fold dilution with the assay buffer to a concentration four times higher than the final concentration. An ATP/substrate/Metal solution was prepared by five-fold dilution of the 5×ATP/substrate/Metal solution attached to the kit with the assay buffer. An enzyme solution was prepared by dilution of the CDK4/cyclin D3 attached to the kit with the assay buffer to a concentration twice higher than the final concentration (final concentration of CDK4/cyclin D3:12.5 to 25 ng/well). A detection reagent was prepared by five-fold dilution of each of 5× IMAP-binding buffer A and 5×IMAP-binding buffer B with distilled water, mixing of IMAP-binding buffer A with IMAP-binding buffer B at a ratio of 85:15, and 400-fold dilution of the IMAP-binding reagent with the mixed buffer.
The test compound solution (5 μL/well) and the ATP/substrate/Metal solution (5 μL/well) were added to a 384-well plate, and the enzyme solution or the assay buffer (10 μL/well) was added to the plate (total amount of the reaction mixture: 20 μL/well) for initiation of enzymatic reaction. […] The reaction was performed at room temperature for 45 minutes, and the detection reagent (60 μL/well) was then added to the plate, followed by further reaction for 30 minutes at room temperature under light shielding conditions. Subsequently, fluorescent polarization was determined with a microplate reader at an excitation wavelength of 485 nm and an emission wavelength of 535 nm.
The percent inhibition of enzyme activity was calculated for each test compound (note: enzyme activity=100% in the case of addition of the enzyme solution and addition of DMSO instead of the test compound solution, whereas enzyme activity=0% in the case of addition of the assay buffer instead of the enzyme solution, and addition of DMSO instead of the test compound solution). The percent inhibition of enzyme activity was fitted to a dose-response curve, to determine a 50% inhibitory concentration against CDK4/cyclin D3.
In each table, “+++” corresponds to IC50<10 nM, “++” 10 nM≤IC50<100 nM, and “+” 100 nM≤IC50.

T1 sequence (P11802 whole entry): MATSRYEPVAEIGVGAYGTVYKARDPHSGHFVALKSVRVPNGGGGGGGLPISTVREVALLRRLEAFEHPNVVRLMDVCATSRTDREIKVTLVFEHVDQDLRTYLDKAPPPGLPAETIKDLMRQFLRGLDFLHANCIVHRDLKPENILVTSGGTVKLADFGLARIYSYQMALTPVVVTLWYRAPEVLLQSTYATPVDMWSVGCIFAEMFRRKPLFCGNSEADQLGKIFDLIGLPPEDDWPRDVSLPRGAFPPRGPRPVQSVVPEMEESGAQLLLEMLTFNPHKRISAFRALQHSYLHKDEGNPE
T1 sequence (P30281 whole entry partner): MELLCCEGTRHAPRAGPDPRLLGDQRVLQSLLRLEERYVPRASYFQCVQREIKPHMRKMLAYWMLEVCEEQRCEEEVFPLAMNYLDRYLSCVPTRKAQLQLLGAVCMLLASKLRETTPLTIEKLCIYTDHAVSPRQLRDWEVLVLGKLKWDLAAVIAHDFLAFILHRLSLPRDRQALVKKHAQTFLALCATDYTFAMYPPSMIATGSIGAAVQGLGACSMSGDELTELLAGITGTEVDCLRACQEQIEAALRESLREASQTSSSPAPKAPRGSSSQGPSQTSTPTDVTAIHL

Row | IC50 | Compound
1 | < 10 nM | CC(C)Nc1nc(C(C)O)cc2cnc(Nc3ccc(N4CCC(O)C(C)C4)nn3)nc12 (single isomer, unassigned) [Compound 705]
2 | 10 to 100 nM | CO[C@H](C)c1cc2cnc(Nc3ccc(N4CCN(CCC(=O)O)CC4)nn3)nc2c(NC(C)C)n1 [Compound 684, (R)-3-(4-(6-((8-(isopropylamino)-6-(l-methoxyethyl)pyrido[3,4-d]pyrimidin-2-yl)amino)pyridazin-3-yl)piperazin-1-yl)propanoic acid]

Row | Compound | IC50
3 | CC(C)Nc1nc([C@@H](C)O)cc2cnc(Nc3ccc(N4CC5CC(C4)C5O)nn3)nc12 (stereo partly drawn) [Compound 687] | < 10 nM

Same assay, conditions: Human CDK4/cyclin D3 inhibitory activity; read-out: CDK4 Activity symbol

Row | IC50 | Compound
4 | 10 to 100 nM | COC(C)c1cc2cnc(Nc3ccc(CN4CCNCC4)cn3)nc2c(Nc2cccc(F)c2)n1 (stereo not drawn) [Compound 447]
5 | 10 to 100 nM | COC(C)c1cc2cnc(Nc3ccc(CN4CCNCC4)cn3)nc2c(NC2CCC(=O)NC2)n1 (stereo not drawn) [Compound 421]
6 | < 10 nM | COC(C)c1cc2cnc(Nc3ccc(CN4CCNCC4)cn3)nc2c(NCC2CCCCO2)n1 (stereo not drawn) [Compound 398]
7 | < 10 nM | COC(C)c1cc2cnc(Nc3ccc(CN4CCNCC4)cn3)nc2c(NC2CN3CCC2CCOC3=O)n1 (stereo not drawn) [Compound 415]
8 | < 10 nM | COC(C)c1cc2cnc(Nc3ccc(CN4CCNCC4)cn3)nc2c(NCCC2CCCO2)n1 (stereo not drawn) [Compound 429]
9 | 10 to 100 nM | COC(C)c1cc2cnc(Nc3ccc(CN4CCNCC4)cn3)nc2c(NC2CNC(=O)C2)n1 (stereo not drawn) [Compound 419]
10 | < 10 nM | COC(C)c1cc2cnc(Nc3ccc(CN4CCNCC4)cn3)nc2c(NC2CCCC(O)C2)n1 (stereo not drawn) [Compound 397]
11 | < 10 nM | COC(C)c1cc2cnc(Nc3ccc(CN4CCNCC4)cn3)nc2c(NCCC2CCCOC2)n1 (stereo not drawn) [Compound 431]
12 | < 10 nM | COC(C)c1cc2cnc(Nc3ccc(CN4CCNCC4)cn3)nc2c(NC(C)C2CCOC2)n1 (stereo not drawn) [Compound 404]
13 | 10 to 100 nM | COC(C)c1cc2cnc(Nc3ccc(CN4CCNCC4)cn3)nc2c(NC23CCC(C(=O)O)(CC2)CC3)n1 (stereo not drawn) [Compound 475]
14 | < 10 nM | COC(C)c1cc2cnc(Nc3ccc(CN4CCNCC4)cn3)nc2c(NCC2CCCC(O)C2)n1 (stereo not drawn) [Compound 402]
15 | < 10 nM | COC(C)c1cc2cnc(Nc3ccc(CN4CCNCC4)cn3)nc2c(NC2CCCOCC2)n1 (stereo not drawn) [Compound 468]
16 | 10 to 100 nM | COC(C)c1cc2cnc(Nc3ccc(CN4CCNC5(CC5)C4)cn3)nc2c(NC(C)C)n1 (stereo not drawn) [Compound 515]
17 | < 10 nM | COC(C)c1cc2cnc(Nc3ccc(CN4CCNCC4)cn3)nc2c(NC[C@H]2CCCO2)n1 (stereo partly drawn) [Compound 411]
18 | < 10 nM | COC(C)c1cc2cnc(Nc3ccc(CN4CCNCC4)cn3)nc2c(NCCC2CCCCO2)n1 (stereo not drawn) [Compound 430]
19 | < 10 nM | COC(C)c1cc2cnc(Nc3ccc(CN4CCNCC4)cn3)nc2c(N[C@H]2CC[C@H](OC(C)C)CC2)n1 (stereo partly drawn) [Compound 464]
20 | < 10 nM | COC(C)c1cc2cnc(Nc3ccc(CN4CCNCC4)cn3)nc2c(NC2CCCCCC2)n1 (stereo not drawn) [Compound 445]
21 | < 10 nM | COC(C)c1cc2cnc(Nc3ccc(CN4CCNCC4)cn3)nc2c(NC2(C)CCOCC2)n1 (stereo not drawn) [Compound 420]
22 | < 10 nM | COC(C)c1cc2cnc(Nc3ccc(CN4CCNCC4)cn3)nc2c(NCC2CC(F)(F)C2)n1 (stereo not drawn) [Compound 465]
23 | < 10 nM | CO[C@H](C)c1cc2cnc(Nc3ccc(CN4CCNC(C)(C)C4)cn3)nc2c(NC(C)C)n1 [Compound 534]
24 | 10 to 100 nM | COC(C)c1cc2cnc(Nc3ccc(CN4CCNCC4)cn3)nc2c(NC2CCCN(C(C)=O)C2)n1 (stereo not drawn) [Compound 405]
25 | < 10 nM | COC(C)c1cc2cnc(Nc3ccc(CN4CCNCC4)cn3)nc2c(NC2(CO)CCCC2)n1 (stereo not drawn) [Compound 413]
26 | < 10 nM | O[C@H]1CC[C@@H](Nc2nc(C(F)F)cc3cnc(Nc4ccc(CN5CCNCC5)cn4)nc23)CC1 [Compound 424]
27 | < 10 nM | COc1ccc(Nc2nc(C(C)OC)cc3cnc(Nc4ccc(CN5CCNCC5)cn4)nc23)cc1 (stereo not drawn) [Compound 450]
28 | < 10 nM | COC(C)c1cc2cnc(Nc3ccc(CN4CCNCC4)cn3)nc2c(Nc2cccc(C#N)c2)n1 (stereo not drawn) [Compound 412]

Further lines, the compound ahead of its results:

Row | Compound | IC50
29 | CO[C@H](C)c1cc2cnc(Nc3ccc(OC4CCNCC4(F)F)cn3)nc2c(NC(C)C)n1 (stereo partly drawn) [Compound 473] | 10 to 100 nM
30 | CO[C@H](C)c1cc2cnc(Nc3ccc(N4CC5(CCC5)C4)cn3)nc2c(NC(C)C)n1 [Compound 480] | 10 to 100 nM
31 | CO[C@H](C)c1cc2cnc(Nc3ccc(NC4CCNC4)nn3)nc2c(NC(C)C)n1 (stereo partly drawn) [Compound 357] | < 10 nM
32 | CC(C)Nc1nc([C@@H](C)O)cc2cnc(Nc3ccc(N4CCNCC(C)(C)C4=O)cn3)nc12 [Compound 543] | < 10 nM
33 | CO[C@H](C)c1cc2cnc(Nc3ccc(N4CC5(CCCNC5)C4)cn3)nc2c(NC(C)C)n1 [Compound 477] | < 10 nM
34 | CC(C)Nc1nc(C(C)O)cc2cnc(Nc3ccc(OC4CNCCC4F)cn3)nc12 (stereo not drawn) [Compound 577] | < 10 nM
35 | CO[C@H](C)c1cc2cnc(Nc3ccc(N4CC5(CNC5)C4)cn3)nc2c(NC(C)C)n1 [Compound 476] | < 10 nM
36 | CO[C@H](C)c1cc2cnc(Nc3ccc(OCCN(C)C)nn3)nc2c(NC(C)C)n1 [Compound 471] | 10 to 100 nM
37 | CC(C)Nc1nc([C@@H](C)O)cc2cnc(Nc3ccc(N4CCC(N5CCOCC5)CC4)nn3)nc12 [Compound 520] | < 10 nM
38 | CC(C)Nc1nc(C(C)O)cc2cnc(Nc3ccc(CN4CCNC5(CC5)C4)cn3)nc12 (stereo not drawn) [Compound 516] | 10 to 100 nM
39 | CO[C@H](C)c1cc2cnc(Nc3ccc(N4CCC(F)(F)CC4)cn3)nc2c(NC(C)C)n1 [Compound 470] | ≥ 100 nM
40 | CO[C@H](C)c1cc2cnc(Nc3ccc(OC4CC5(CNC5)C4)cn3)nc2c(NC(C)C)n1 [Compound 483] | < 10 nM
41 | CO[C@H](C)c1cc2cnc(Nc3ccc(N4CCNCC4)nn3)nc2c(NC2CCS(=O)(=O)CC2)n1 [Compound 359] | 10 to 100 nM
42 | CO[C@H](C)c1cc2cnc(Nc3ccc(N4CC5(CCCN5)C4)cn3)nc2c(NC(C)C)n1 [Compound 486] | < 10 nM
43 | CO[C@H](C)c1cc2cnc(Nc3ccc(N4CCC(N(C)C)CC4)nn3)nc2c(NC(C)C)n1 [Compound 489] | < 10 nM
44 | CO[C@H](C)c1cc2cnc(Nc3ccc(N4CCNCC(C)(C)C4=O)cn3)nc2c(NC(C)C)n1 [Compound 542] | 10 to 100 nM
45 | CNC(=O)CNc1ccc(Nc2ncc3cc([C@@H](C)O)nc(NC(C)C)c3n2)nc1 [Compound 539] | 10 to 100 nM
46 | CC(C)Nc1nc([C@@H](C)O)cc2cnc(Nc3ccc(CN4CCNC(C)(C)C4)cn3)nc12 [Compound 536] | < 10 nM
47 | CNCCCOc1ccc(Nc2ncc3cc([C@@H](C)O)nc(NC(C)C)c3n2)nc1 [Compound 528] | < 10 nM
48 | CO[C@H](C)c1cc2cnc(Nc3ccc(N4CC5(CCN5)C4)cn3)nc2c(NC(C)C)n1 [Compound 478] | < 10 nM
49 | CO[C@H](C)c1cc2cnc(Nc3ccc(N4CCNC4=O)cn3)nc2c(NC(C)C)n1 [Compound 498] | < 10 nM
50 | CNCCCOc1ccc(Nc2ncc3cc([C@@H](C)O)nc(NC(C)C)c3n2)nn1 [Compound 530] | < 10 nM
51 | CNC1CCN(c2ccc(Nc3ncc4cc(C(C)OC)nc(NC(C)C)c4n3)nn2)CC1 (stereo not drawn) [Compound 452] | < 10 nM
52 | CC(C)Nc1nc([C@@H](C)O)cc2cnc(Nc3ccc(N4CCN(CC(C)(C)C)CC4)nn3)nc12 [Compound 587] | < 10 nM
53 | CO[C@H](C)c1cc2cnc(Nc3ccc(N4CCNCC4=O)nn3)nc2c(NC(C)C)n1 [Compound 356] | 10 to 100 nM
54 | CC(C)Nc1nc([C@@H](C)O)cc2cnc(Nc3ccc(N4CCNC(C)(C)C4=O)cn3)nc12 [Compound 440] | 10 to 100 nM
